Laboratory results as given in patent US9790225B2, “4-amino-3-phenylamino-6-phenylpyrazolo[3,4-d]pyrimidine derivatives, their manufacture and their use as antiviral active substances” (Scandion Oncology A/S, priority 2011, dated 2017).
Where two headings read alike, the source gives them in different places. Marks after values point to notes of the source that are not given here.

Key:
plasma protein = test: Plasma protein binding and release in vitro (ADMET); format: in vitro ADME; details: for Binding to plasma protein / Release of plasma protein: in vitro
Excerpt: (§1) Objective: To investigate the Absorption, Distribution, Metabolism, Excretion and Toxicity (abbreviated as: ADMET) of OBR 5-340 in vitro, as well as in vitro tests on the plasma protein binding and the stability in the plasma and in liver microsomes. Tests: The In vitro tests performed with CRCV-340 as well as the data obtained are summarised in Table 2 in comparison with Ref. 2.

[1] = Plasma stability in vitro (ADMET); format: in vitro ADME
Excerpt: as §1

[2] = Stability in liver microsomes in vitro (ADMET); format: in vitro ADME; details: for Stability in liver microsomes: in vitro
Excerpt: as §1

[3] = Pharmacokinetics in mice, single per os application, HPLC of plasma; format: in vivo; details: for half-life / AUC(0-inf) / Tmax / AUC(0-t) / Cmax / MRT: mouse, po; for half-life: read-out: T1/2 (half life) (converted); for AUC(0-inf): read-out: AUC0-∞ (area under curve); for Tmax: read-out: Tmax (time to reach the maximum concentration in the blood); for AUC(0-t): read-out: AUC0-t (area under curve); for Cmax: read-out: Cmax (maximum concentration in the blood); for MRT: read-out: MRT (mean residence time)
Experimental: Tests: Substance and reference substance were applied respectively once in a concentration of 100 mg/kg KG, in 0.5 ml of a 10% Cremophor solution per os to the mice, After 0.5, 1, 2, 3, 4, 5, 6 and 7 hrs serum was taken and by means of HPLC analysis the concentrations of CRCV-340, Ref-2 and Ref-3 determined in the plasma of the mice.
Using the substance concentrations in the blood plasma determined by HPLC the pharmacokinetic parameters of the substances were calculated using the computer program ESTRIP (Table 3).

[4] = Acute toxicity in mice after single peroral administration; format: in vivo; details: for LD50 at 72 h: mouse, in vivo; for LD50 at 72 h / LD50: single peroral administration
Experimental: Tests: The acute toxicity of the substance CRCV-340 was tested in mice 19.5-20.5 g in weight, which was administered per os 40, 60, 80 or 120 mg substance/mouse (per 5 mice per substance and concentration). This corresponds to a dose of approx. 2 g, 3 g, 4 g or 6 g per kilogramme body weight. The toxic effects observed in the result correlated to the substance dose administered.

[5] = Subacute toxicity in mice over 28 days, intragastric; format: in vivo; details: mice, 12.5, 50 or 200 mg/kg once a day over 28 days
Experimental: Objective: To determine the subacute toxicity in mice in order to reveal possible side effects e.g. on general condition, weight, internal organs and metabolism, which could arise with subacute administration of CRCV-340 over 28 days.
Tests: Thus male and female mice weighing approx. 20 g received 12.5, 50 or 200 mg/kg of the substance CRCV-340 in a Cremophor formulation or the control group received Cremophor once a day over 28 days intragastrically administered via a tube. During the total period of the experiment the condition of the coat and the mucous membranes, the excreta and the general condition were assessed. The recording of the weight took place on days 7, 14, 21 and 28. Approx. 24 hrs. after the last substance dose the sense of direction of the animals was examined. The following biochemical parameters in the serum were analysed: protein content, urea, creatinine, the serum activity of aspartate aminotransferase, alanine aminotransferase and alkaline phosphatase. The haemoglobin concentration, hematocrit, the number of red and white blood cells as well as the platelets was determined in the blood smear. At the end of the experiment the mice were killed under anaesthetic and dissected, the condition of the internal organs were assessed macroscopically, the organ weight determined and samples for subsequent histological tests put into formalin.

[6] = system: human rhinovirus serotypes (HRV); test: zpE (cytopathic effect) inhibitory test with HRV serotypes; format: cell-based; details: for IC50: Human rhinovirus sp.; for Number of sensitive HRV: of 50 examined serotypes
Excerpt: (§2) Objective: To determine the antiviral effective spectrum of CRCV-340 in respect of 50 different human rhinovirus serotypes and CVB3 patient isolates.
(§3) Tests: The 50 HRV serotypes and 20 clinical CVB3 isolates were reproduced in HeLa, HeLa Wis and/or LF cells, their titre determined and the serotype verified using sequencing. Accordingly zpE (zytopathic effect) inhibitory tests with the HRV or plaque-reductions tests with the CVB3 isolates were established. In the corresponding antiviral tests dose effect investigations with Ref-3 and CRCV-340 were carried out. Tables 5 and 6 give an overview of the mean 50% inhibitory concentrations.

clinical CVB3 isolates = test: Plaque-reduction test with clinical CVB3 isolates; format: cell-based; details: for IC50: Enterovirus B, CVB3; for Number of sensitive CVB3: of 20 clinical isolates, CRCV-340 maximum tested concentration 13.5 μM
Excerpt: as §2, §3

CVB3 31-1-93 [7] = test: Mouse model of CVB3-induced chronic myocarditis; format: in vivo; details: CVB3 31-1-93-infected NMRI mice, 100 mg/kg once or twice a day over 7 days
Experimental: Investigations: The effect of CRCV-340 was investigated in the model of CVB 3-induced myocarditis in 8-week old male NMRI mice. In addition CVB3 31-1-93 or CVB3 H3-infected animals received once or twice a day 100 mg/kg of the substance in 50% or 20% PEG-400 in 1% CMC in water (placebo) administered over 7 days. Parameters to evaluate the therapeutic effect included changes in body weight, general condition, virus titre in heart and pancreas tissue as well as histopathological changes in the heart and pancreas. Pseudo-infected, placebo-treated or CRCV-340-treated animals served as a negative control and infected, placebo- or pleconaril-treated animals as a positive control over the course of the infection.

CVB3 31-1-93 [8] = test: Lethal mouse model of CVB3-induced myocarditis; format: in vivo; details: CVB3 31-1-93-infected BALB/c mice, 100 mg/kg twice a day over 7 days
Experimental: Investigations: The effect of the development candidate CRCV-340 was examined following testing of the infection dose in the model of the CVB 3-induced myocarditis in 6-7 weeks old male BALB/c mice. In addition CVB3 31-1-93 or CVB3 H3-infected animals received twice a day 100 mg/kg of the substance in 20% PEG-400 in 1% CMC in water (placebo) administered over 7 days. Changes in body weight, general condition and the lethality defined through the surrogate marker 25% loss of body weight served as parameters to evaluate the therapeutic effect. Pseudo-infected, placebo-treated or CRCV-340-treated animals represented the negative control and infected, placebo- or pleconaril-treated animals the positive control over the course of the infection.

[9] = in vivo; cited from earlier work
[10] = in vivo; cited from earlier work; remark: listed apart in the source
[11] = mice, single intragastric 100 mg/kg
[12] = plasma, mice, single intragastric 100 mg/kg
[13] = single peroral dose 40 mg/mouse
[14] = single peroral dose 60 mg/mouse
[15] = single peroral dose 80 mg/mouse
[16] = single peroral dose 120 mg/mouse
[17] = read-out: IC50 Pleconaril-resistant HRV (n = 5), mean
[18] = read-out: IC50 Pleconaril-sensitive HRV (n = 45), mean
[19] = read-out: IC50 all HRV (n = 50), mean
[20] = mean over 19 pleconaril-sensitive isolates, read-out: IC50 Pleconaril-sensitive CVB3 (n = 19), mean
[21] = mean over all 20 clinical isolates, read-out: IC50 all CVB3 (n = 20), mean
[22] = the one pleconaril-resistant isolate, read-out: IC50 Pleconaril-resistant CVB3 (n = 1)

## Nc1nc(-c2ccccc2)nc2[nH]nc(Nc3ccc(C(F)(F)F)cc3)c12 [CRCV-340, 4-amino-3-(4-trifluormethyl-phenyl)amino-6-phenylpyrazolo[3,4-d]pyrimidine]
Plasma protein; in comparison with Ref-2
  Release of plasma protein, comparison in words: increased release of plasma protein
Plasma protein
  Binding to plasma protein: 96.7%
  Release of plasma protein: 122.3%
[1]
  Plasma stability: 100.0%
[2]; compared with Ref-2 / state-of-the-art substances
  Stability in liver microsomes, comparison in words: better stability in liver microsomes
[2]
  Stability in liver microsomes: 112.0%
[3]; compared with Ref-2 and Ref-3 / state-of-the-art substances
  Bioavailability in mice, comparison in words: significantly better bioavailability
[3]; [11]
  Cmax (maximum concentration in the blood): 1254.4 ng/mL
  MRT (mean residence time): 3.54 h
[3]; in vivo, mice, single intragastric 100 mg/kg
  half-life: 3.54 h
[3]; [12]
  AUC(0-inf): 9600 ng·h/mL
  Tmax: 3 h
[4]
  LD50 at 72 h: 3120 mg/kg
  LD50: 62.4 mg/mouse
[4]; [13]
  Dead/Surviving 72 hrs after administration: 1/5
[4]; [14]
  Dead/Surviving 72 hrs after administration: 1/5
[4]; [15]
  Dead/Surviving 72 hrs after administration: 3/5
[4]; [16]
  Dead/Surviving 72 hrs after administration: 5/5
[5]
  Tolerance on subacute administration: extremely good tolerance
[6]; 50 HRV serotypes
  Effective spectrum in respect of HRV in comparison to Ref-3: significantly broader
[6]; [17]
  IC50: 22.6 µM
[6]; [18]
  IC50: 26.1 µM
[6]; [19]
  IC50: 25.7 µM
[6]
  Number of sensitive HRV: 49
Clinical CVB3 isolates; [20]
  IC50: 5.16 µM
Clinical CVB3 isolates; [21]
  IC50: 4.97 µM
Clinical CVB3 isolates; [22]
  IC50: 1.39 µM
Clinical CVB3 isolates
  Number of sensitive CVB3: 18*
CVB3 31-1-93 [7]
  Therapeutic effect (body weight, general condition, virus titre in heart and pancreas, histopathology): effective
CVB3 31-1-93 [8]
  Therapeutic effect (body weight, general condition, lethality): effective

## Nc1nc(-c2cc(C(F)(F)F)cc(C(F)(F)F)c2)nc2[nH]nc(Nc3ccc(Cl)cc3)c12 [MS-115]
other
  melting point: 272 to 274 °C

## Nc1nc(-c2ccccc2C(F)(F)F)nc2[nH]nc(Nc3ccc(Cl)cc3)c12 [MS-116]
other
  melting point: 271 to 273 °C

## Nc1nc(-c2cccc(C(F)(F)F)c2)nc2[nH]nc(Nc3ccccc3)c12 [MS-117]
other
  melting point: 230 to 232 °C

## Nc1nc(-c2ccccc2)nc2[nH]nc(Nc3ccccc3)c12 [Ref-2, 4-amino-3-(phenylamino)-6-phenylpyrazolo[3,4-d]pyrimidine]
Plasma protein
  Binding to plasma protein: 99.5%
  Release of plasma protein: 61.0%
[1]
  Plasma stability: 117.0%
[2]
  Stability in liver microsomes: 32.0%
[3]; [12]
  AUC(0-t): 2350 ng·h/mL
  AUC(0-inf): 2730 ng·h/mL
  Cmax: 1300 ng/mL
  MRT: 2.14 h
  half-life: 2.96 h
  Tmax: 1 h
[4]
  LD50 at 72 h: 3930 mg/kg
  LD50: 78.6 mg/mouse
[4]; [13]
  Dead/Surviving 72 hrs after administration: 0/5
[4]; [14]
  Dead/Surviving 72 hrs after administration: 1/5
[4]; [15]
  Dead/Surviving 72 hrs after administration: 3/5
[4]; [16]
  Dead/Surviving 72 hrs after administration: 4/5

## Nc1nc(-c2ccccc2)nc2[nH]nc(Nc3ccc(Cl)cc3)c12 [Ref-3, 4-amino-3-(4-chlorphenyl)amino-6-phenylpyrazolo[3,4-d]pyrimidine]
[3]; [12]
  AUC(0-t): 1090 ng·h/mL
  AUC(0-inf): 1090 ng·h/mL
  Cmax: 424 ng/mL
  MRT: 2.44 h
  half-life: 1.47 h
  Tmax: 0.5 h
[6]; [17]
  IC50: 0.07 µM
[6]; [18]
  IC50: 18.5 µM
[6]; [19]
  IC50: 16.1 µM
[6]
  Number of sensitive HRV: 23
Clinical CVB3 isolates; [20]
  IC50: 0.71 µM
Clinical CVB3 isolates; [21]
  IC50: 0.68 µM
Clinical CVB3 isolates; [22]
  IC50: 0.13 µM
Clinical CVB3 isolates
  Number of sensitive CVB3: 20

## Nc1nc(-c2ccccc2)nc2[nH]nc(Nc3ccc(F)cc3)c12 [Ref-5, 4-amino-3-[(4-fluorophenyl)amino]-6-phenylpyrazolo[3,4-d]pyrimidine]
other
  melting point: 262 to 263 °C

## Cc1cc(CCCCCCCOc2ccc(C3=NCCO3)cc2)on1 [disoxaril]
[9]
  Bioavailability: low bioavailability
[10]
  Metabolisation and excretion: fast metabolisation and excretion

## Cc1cc(CCCOc2c(C)cc(-c3noc(C(F)(F)F)n3)cc2C)on1 [pleconaril]
CVB3 31-1-93 [7]
  Therapeutic effect (body weight, general condition, virus titre in heart and pancreas, histopathology): in contrast to the placebo and pleconaril CRCV-340 was effective
CVB3 31-1-93 [8]
  Therapeutic effect (body weight, general condition, lethality): In contrast to the placebo and pleconaril CRCV-340 was effective
[9]
  Bioavailability: very good oral bioavailability
